Target: T1, BRM (Homo sapiens, UniProt P51531)
T1 construct: In-Cell Western Screen of BRM Degradation in SW1573 Cells; endogenous in cells; host or cells: SW1573
Test: In-cell Western screen of BRM degradation in SW1573 cells (Dmax and DC50)
Assay type: cell-based
Settings: for Dmax: SW1573, % degraded, when tested at the top concentration of between 0.3 and 10 μM, read-out: BRM Dmax (%); for DC50: degradation of BRM, read-out: BRM DC50
Outline: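 Near-infrared imaging on a LI-COR Odyssey (800 and 680 nm channels) quantifies BRM remaining in fixed SW1573 cells. Cells are dosed for 18-20 h at 0.1% final DMSO, and degradation is expressed as Dmax and DC50.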

T1 sequence (P51531 whole entry): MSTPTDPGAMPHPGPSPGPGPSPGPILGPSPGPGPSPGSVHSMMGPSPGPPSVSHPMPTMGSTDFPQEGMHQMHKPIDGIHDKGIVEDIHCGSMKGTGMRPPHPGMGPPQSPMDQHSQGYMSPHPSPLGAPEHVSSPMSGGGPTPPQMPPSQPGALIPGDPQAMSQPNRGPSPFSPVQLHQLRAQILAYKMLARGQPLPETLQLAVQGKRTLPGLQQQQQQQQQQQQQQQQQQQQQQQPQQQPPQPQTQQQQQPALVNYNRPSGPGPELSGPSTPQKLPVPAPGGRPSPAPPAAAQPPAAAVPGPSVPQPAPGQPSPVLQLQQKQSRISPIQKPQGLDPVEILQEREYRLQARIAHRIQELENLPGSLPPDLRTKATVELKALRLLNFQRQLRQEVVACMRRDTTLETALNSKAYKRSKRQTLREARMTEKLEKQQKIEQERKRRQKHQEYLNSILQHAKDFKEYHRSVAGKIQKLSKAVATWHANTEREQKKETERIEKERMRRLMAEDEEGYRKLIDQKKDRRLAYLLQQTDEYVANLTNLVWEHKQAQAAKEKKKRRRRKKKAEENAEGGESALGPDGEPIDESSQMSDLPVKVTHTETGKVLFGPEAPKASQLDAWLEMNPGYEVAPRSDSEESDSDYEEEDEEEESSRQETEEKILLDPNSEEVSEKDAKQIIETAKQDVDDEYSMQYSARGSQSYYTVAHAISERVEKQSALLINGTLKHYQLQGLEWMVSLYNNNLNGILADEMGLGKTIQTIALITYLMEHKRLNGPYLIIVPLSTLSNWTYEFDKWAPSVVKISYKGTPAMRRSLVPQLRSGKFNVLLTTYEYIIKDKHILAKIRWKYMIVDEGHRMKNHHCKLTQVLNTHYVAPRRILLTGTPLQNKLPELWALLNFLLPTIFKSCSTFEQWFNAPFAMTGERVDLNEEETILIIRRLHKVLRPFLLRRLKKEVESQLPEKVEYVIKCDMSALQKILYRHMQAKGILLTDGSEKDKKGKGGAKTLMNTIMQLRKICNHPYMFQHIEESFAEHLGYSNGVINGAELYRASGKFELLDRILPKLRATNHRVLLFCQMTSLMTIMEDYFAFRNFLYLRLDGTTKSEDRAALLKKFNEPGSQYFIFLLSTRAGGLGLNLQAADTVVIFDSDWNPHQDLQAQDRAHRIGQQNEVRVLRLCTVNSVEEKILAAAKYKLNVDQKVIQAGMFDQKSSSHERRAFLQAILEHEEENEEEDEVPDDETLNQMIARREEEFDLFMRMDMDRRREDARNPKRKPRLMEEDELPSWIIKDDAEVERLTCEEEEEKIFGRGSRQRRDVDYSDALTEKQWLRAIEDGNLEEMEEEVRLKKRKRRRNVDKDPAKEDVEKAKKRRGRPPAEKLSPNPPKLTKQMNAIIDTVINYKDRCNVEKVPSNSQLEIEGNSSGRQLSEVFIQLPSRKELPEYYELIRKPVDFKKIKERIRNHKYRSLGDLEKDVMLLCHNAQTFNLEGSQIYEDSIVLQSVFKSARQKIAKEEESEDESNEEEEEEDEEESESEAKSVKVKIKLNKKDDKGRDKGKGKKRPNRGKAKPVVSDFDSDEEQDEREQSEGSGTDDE

Cc1ncsc1-c1ccc([C@H](C)NC(=O)[C@@H]2C[C@@H](O)CN2C(=O)C(c2cc(O[C@H]3C[C@H](N4CCC(O[C@H]5C[C@H](Oc6cc(N7C8CCC7CN(c7cc(-c9ccccc9O)nnc7N)C8)ccn6)C5)CC4)C3)no2)C(C)C)cc1 (stereo partly drawn) [compound 411, (2S,4R)-1-(2-(3-((1R,3S)-3-(4-((1r,3R)-3-((4-(3-(3-amino-6-(2-hydroxyphenyl)pyridazin-4-yl)-3,8-diazabicyclo[3.2.1]octan-8-yl)pyridin-2-yl)oxy)cyclobutoxy)piperidin-1-yl)cyclobutoxy)isoxazol-5-yl)-3-methylbutanoyl)-4-hydroxy-N-((S)-1-(4-(4-methylthiazol-5-yl)phenyl)ethyl)pyrrolidine-2-carboxamide]
Dmax: > 75%
DC50: < 2.5 nM

Cc1nccn1-c1ccc([C@H](C)NC(=O)[C@@H]2C[C@@H](O)CN2C(=O)[C@H](c2cc(N3CCN(CCN4CCC(O[C@H]5C[C@H](Oc6cc(N7C8CCC7CN(c7cc(-c9ccccc9O)nnc7N)C8)ccn6)C5)CC4)CC3)no2)C(C)C)cc1 [compound 412, (2S,4R)-1-((2S)-2-(3-(4-(2-(4-((1r,3r)-3-((4-(3-(3-amino-6-(2-hydroxyphenyl)pyridazin-4-yl)-3,8-diazabicyclo[3.2.1]octan-8-yl)pyridin-2-yl)oxy)cyclobutoxy)piperidin-1-yl)ethyl)piperazin-1-yl)isoxazol-5-yl)-3-methylbutanoyl)-4-hydroxy-N-((S)-1-(4-(2-methyl-1 H-imidazol-1-yl)phenyl)ethyl)pyrrolidine-2-carboxamide]
DC50: > 30 nM

Cc1nccn1-c1ccc([C@H](C)NC(=O)[C@@H]2C[C@@H](O)CN2C(=O)[C@@H](c2cc(N3CCN(CCN4CCC(O[C@H]5C[C@H](Oc6cc(N7C8CCC7CN(c7cc(-c9ccccc9O)nnc7N)C8)ccn6)C5)CC4)CC3)no2)C(C)C)cc1 [compound 413, (2S,4R)-1-((2R)-2-(3-(4-(2-(4-((1r,3r)-3-((4-(3-(3-amino-6-(2-hydroxyphenyl)pyridazin-4-yl)-3,8-diazabicyclo[3.2.1]octan-8-yl)pyridin-2-yl)oxy)cyclobutoxy)piperidin-1-yl)ethyl)piperazin-1-yl)isoxazol-5-yl)-3-methylbutanoyl)-4-hydroxy-N-((S)-1-(4-(2-methyl-1H-imidazol-1-yl)phenyl)ethyl)pyrrolidine-2-carboxamide]
Dmax: > 75%
DC50: < 2.5 nM

Cc1ncsc1-c1ccc([C@H](C)NC(=O)[C@@H]2C[C@@H](O)CN2C(=O)[C@@H](c2cc(OCCN3CCC(O[C@H]4C[C@H](C#C[C@@H](C)n5cc(-c6cc(-c7ccccc7O)nnc6N)cn5)C4)CC3)no2)C(C)C)cc1 [compound 414, (2S,4R)-1-((R)-2-(3-(2-(4-((1R,3R)-3-((R)-3-(4-(3-amino-6-(2-hydroxyphenyl)pyridazin-4-yl)-1 H-pyrazol-1-yl)but-1-yn-1-yl)cyclobutoxy)piperidin-1-yl)ethoxy)isoxazol-5-yl)-3-methylbutanoyl)-4-hydroxy-N-((S)-1-(4-(4-methylthiazol-5-yl)phenyl)ethyl)pyrrolidine-2-carboxamide]
Dmax: > 75%
DC50: < 2.5 nM

Cc1ncsc1-c1ccc([C@H](C)NC(=O)[C@@H]2C[C@@H](O)CN2C(=O)[C@@H](c2cc(OCCN3CCC(O[C@H]4C[C@H](C#C[C@H](C)n5cc(-c6cc(-c7ccccc7O)nnc6N)cn5)C4)CC3)no2)C(C)C)cc1 [compound 415, (2S,4R)-1-((R)-2-(3-(2-(4-((1S,3R)-3-((S)-3-(4-(3-amino-6-(2-hydroxyphenyl)pyridazin-4-yl)-1H-pyrazol-1-yl)but-1-yn-1-yl)cyclobutoxy)piperidin-1-yl)ethoxy)isoxazol-5-yl)-3-methylbutanoyl)-4-hydroxy-N-((S)-1-(4-(4-methylthiazol-5-yl)phenyl)ethyl)pyrrolidine-2-carboxamide]
Dmax: > 75%
DC50: < 2.5 nM

CC(C)[C@@H](C(=O)N1C[C@H](O)C[C@H]1C(=O)N[C@@H](C)c1ccc(-c2scnc2N)cc1)c1cc(OCCN2CCC(O[C@H]3C[C@H](Oc4cc(N5C6CCC5CN(c5cc(-c7ccccc7O)nnc5N)C6)ccn4)C3)CC2)no1 [compound 416, (2S,4R)-1-((2R)-2-(3-(2-(4-((1r,3R)-3-((4-(3-(3-amino-6-(2-hydroxyphenyl)pyridazin-4-yl)-3,8-diazabicyclo[3.2.1]octan-8-yl)pyridin-2-yl)oxy)cyclobutoxy)piperidin-1-yl)ethoxy)isoxazol-5-yl)-3-methylbutanoyl)-N-((S)-1-(4-(4-aminothiazol-5-yl)phenyl)ethyl)-4-hydroxypyrrolidine-2-carboxamide]
Dmax: > 75%
DC50: < 2.5 nM

Cc1ncsc1-c1ccc([C@H](C)NC(=O)[C@@H]2C[C@@H](O)CN2C(=O)[C@@H](c2cc(OCCC3CCN(C[C@H]4C[C@H](Oc5cc(N6C7CCC6CN(c6cc(-c8ccccc8O)nnc6N)C7)ccn5)C4)CC3)no2)C(C)C)cc1 [compound 417, (2S,4R)-1-((2R)-2-(3-(2-(1-(((1r,3R)-3-((4-(3-(3-amino-6-(2-hydroxyphenyl)pyridazin-4-yl)-3,8-diazabicyclo[3.2.1]octan-8-yl)pyridin-2-yl)oxy)cyclobutyl)methyl)piperidin-4-yl)ethoxy)isoxazol-5-yl)-3-methylbutanoyl)-4-hydroxy-N-((S)-1-(4-(4-methylthiazol-5-yl)phenyl)ethyl)pyrrolidine-2-carboxamide]
Dmax: > 75%
DC50: < 2.5 nM

CC(C)[C@H](C(=O)N1C[C@H](O)C[C@H]1C(=O)NCc1ccc(C2(F)CC2)cc1)c1cc(OCCN2CCC(O[C@H]3C[C@H](Oc4cc(N5C6CCC5CN(c5cc(-c7ccccc7O)nnc5N)C6)ccn4)C3)CC2)no1 [compound 418, (2S,4R)-1-((2S)-2-(3-(2-(4-((1r,3S)-3-((4-(3-(3-amino-6-(2-hydroxyphenyl)pyridazin-4-yl)-3,8-diazabicyclo[3.2.1]octan-8-yl)pyridin-2-yl)oxy)cyclobutoxy)piperidin-1-yl)ethoxy)isoxazol-5-yl)-3-methylbutanoyl)-N-(4-(1-fluorocyclopropyl)benzyl)-4-hydroxypyrrolidine-2-carboxamide]
DC50: > 30 nM

CC(C)[C@@H](C(=O)N1C[C@H](O)C[C@H]1C(=O)NCc1ccc(C2(F)CC2)cc1)c1cc(OCCN2CCC(O[C@H]3C[C@H](Oc4cc(N5C6CCC5CN(c5cc(-c7ccccc7O)nnc5N)C6)ccn4)C3)CC2)no1 [compound 419, (2S,4R)-1-((2R)-2-(3-(2-(4-((1r,3R)-3-((4-(3-(3-amino-6-(2-hydroxyphenyl)pyridazin-4-yl)-3,8-diazabicyclo[3.2.1]octan-8-yl)pyridin-2-yl)oxy)cyclobutoxy)piperidin-1-yl)ethoxy)isoxazol-5-yl)-3-methylbutanoyl)-N-(4-(1-fluorocyclopropyl)benzyl)-4-hydroxypyrrolidine-2-carboxamide]
Dmax: > 75%
DC50: 2.5 to 10 nM

Cc1ncsc1-c1ccc([C@@H](NC(=O)[C@@H]2C[C@@H](O)CN2C(=O)[C@@H](c2cc(OCCN3CCC(O[C@H]4C[C@H](Oc5cc(N6C7CCC6CN(c6cc(-c8ccccc8O)nnc6N)C7)ccn5)C4)CC3)no2)C(C)C)C(=O)N(C)C2CCC2)cc1 [compound 420, (2S,4R)-1-((2R)-2-(3-(2-(4-((1r,3R)-3-((4-(3-(3-amino-6-(2-hydroxyphenyl)pyridazin-4-yl)-3,8-diazabicyclo[3.2.1]octan-8-yl)pyridin-2-yl)oxy)cyclobutoxy)piperidin-1-yl)ethoxy)isoxazol-5-yl)-3-methylbutanoyl)-N-((R)-2-(cyclobutyl(methyl)amino)-1-(4-(4-methylthiazol-5-yl)phenyl)-2-oxoethyl)-4-hydroxypyrrolidine-2-carboxamide]
Dmax: > 75%
DC50: < 2.5 nM

Cc1ncsc1-c1ccc([C@H](C)NC(=O)[C@@H]2C[C@@H](O)CN2C(=O)[C@H](c2cc(OCC(F)(F)CN3CCC(O[C@H]4C[C@H](Oc5cc(N6C7CCC6CN(c6cc(-c8ccccc8O)nnc6N)C7)ccn5)C4)CC3)no2)C(C)C)cn1 [compound 421, (2S,4R)-1-((2S)-2-(3-(3-(4-((1r,3S)-3-((4-(3-(3-amino-6-(2-hydroxyphenyl)pyridazin-4-yl)-3,8-diazabicyclo[3.2.1]octan-8-yl)pyridin-2-yl)oxy)cyclobutoxy)piperidin-1-yl)-2,2-difluoropropoxy)isoxazol-5-yl)-3-methylbutanoyl)-4-hydroxy-N-((S)-1-(6-(4-methylthiazol-5-yl)pyridin-3-yl)ethyl)pyrrolidine-2-carboxamide]
DC50: > 30 nM

Cc1ncsc1-c1ccc([C@H](C)NC(=O)[C@@H]2C[C@@H](O)CN2C(=O)[C@@H](c2cc(OCC(F)(F)CN3CCC(O[C@H]4C[C@H](Oc5cc(N6C7CCC6CN(c6cc(-c8ccccc8O)nnc6N)C7)ccn5)C4)CC3)no2)C(C)C)cn1 [compound 422, (2S,4R)-1-((2R)-2-(3-(3-(4-((1r,3R)-3-((4-(3-(3-amino-6-(2-hydroxyphenyl)pyridazin-4-yl)-3,8-diazabicyclo[3.2.1]octan-8-yl)pyridin-2-yl)oxy)cyclobutoxy)piperidin-1-yl)-2,2-difluoropropoxy)isoxazol-5-yl)-3-methylbutanoyl)-4-hydroxy-N-((S)-1-(6-(4-methylthiazol-5-yl)pyridin-3-yl)ethyl)pyrrolidine-2-carboxamide]
Dmax: > 75%
DC50: < 2.5 nM

Cc1ncsc1-c1ccc([C@@H](NC(=O)[C@@H]2C[C@@H](O)CN2C(=O)[C@H](c2cc(OCCN3CCC(O[C@H]4C[C@H](Oc5cc(N6C7CCC6CN(c6cc(-c8ccccc8O)nnc6N)C7)ccn5)C4)CC3)no2)C(C)C)C(=O)N(C)C2CCC2)cc1 [compound 423, (2S,4R)-1-((2S)-2-(3-(2-(4-((1r,3S)-3-((4-(3-(3-amino-6-(2-hydroxyphenyl)pyridazin-4-yl)-3,8-diazabicyclo[3.2.1]octan-8-yl)pyridin-2-yl)oxy)cyclobutoxy)piperidin-1-yl)ethoxy)isoxazol-5-yl)-3-methylbutanoyl)-N-((R)-2-(cyclobutyl(methyl)amino)-1-(4-(4-methylthiazol-5-yl)phenyl)-2-oxoethyl)-4-hydroxypyrrolidine-2-carboxamide]
DC50: > 30 nM

— US12539292B2, “BRM targeting compounds and associated methods of use” (Arvinas Operations, Inc., priority 2018, dated 2026)
